# Tested on: profilaggrin
# Assay: Control of the profilaggrin expression in human keratinocyte cell line HaCaT (Western blotting)
# Format: cell-based
# Settings: HaCaT cells, peptide 0.1, 1.0 and 10 μM, 48 hours, concentration-dependent, FIG. 3
# Method: Since profilaggrin is one of the principal elements for constituting skin barrier, we evaluate whether the profilaggrin synthesis in keratinocytes is facilitated by the treatment of the peptides of the present invention, using the HaCaT cells (human keratinocyte cell line, DKFZ, Heidelberg, Germany). The HaCaT cells were treated with the peptides of SEQ ID NOs: 3 and 5, in the concentrations of 0.1, 1.0 and 10 μM. After 48 hours, the cell extracts were subject to the Western blotting assay so as to measure the expressions of profilaggrin. […] Therefore, it can be seen that the peptides of the present invention have a skin-moisturizing activity through facilitating the profilaggrin expression.
row,Substance,expressions of profilaggrin
1,"Leu-Phe-Thr-Tyr-Asp (LFTYD; Peptide fragment) [SEQ ID NO: 3, adiponectin-derived peptide fragment]",increased
2,"Phe-Thr-Tyr (FTY; Peptide fragment) [SEQ ID NO: 5, adiponectin-derived peptide fragment]",increased

# Tested on: NIH3T3 cells
# Assay: Tests for facilitating the proliferation of mouse fibroblast cell line NIH3T3 (CCK-8)
# Format: cell-based
# Settings: peptide 10 μM; 24, 48 and 72 hours; CCK-8 absorbance at 475 nm; FIG. 1
# Method: The NIH3T3 cells (mouse fibroblast cell line, ATCC CRL-1658, USA), along with 100 μl of Dulbecco's Modified Eagle medium (DMEM), were added to each well of the 96-well microplate in the concentration of 5×10^3 cells per well, and then cultured in a 5% CO2 incubator at 37° C. for 24 hours. The peptide solutions (100 μl) having the respective peptide of SEQ ID NOs: 1, 2, 3 and 5 in the concentration of 10 μM were added to each well. While incubating the cells for 24, 48, and 72 hours therefrom, 10 μl of CCK-8 (Dojindo Laboratories, Japan) was added to each well and then the respective absorbance at 475 nm was measured with Spectramax plus 190 plate reader (Molecular Devices, USA).
row,Substance,proliferations of NIH3T3 cells
1,"His-Ile-Thr (HIT; Peptide fragment) [SEQ ID NO: 2, adiponectin-derived peptide fragment]",significantly increased
2,"Leu-Phe-Thr-Tyr-Asp (LFTYD; Peptide fragment) [SEQ ID NO: 3, adiponectin-derived peptide fragment]",significantly increased
3,"Phe-Thr-Tyr (FTY; Peptide fragment) [SEQ ID NO: 5, adiponectin-derived peptide fragment]",significantly increased
4,"Tyr-His-Ile-Thr (YHIT; Peptide fragment) [SEQ ID NO: 1, adiponectin-derived peptide fragment]",significantly increased

# Tested on: procollagen type-1
# Assay: Activation of the procollagen type-1 expression in fibroblasts (Western blotting)
# Format: cell-based, mouse
# Settings: NIH3T3 cells, peptide 0.1, 1 and 10 μM, 48 hours, concentration-dependent, FIG. 2
# Method: Since facilitation of the collagen fiber synthesis is one of the principal means for inhibiting skin aging, we evaluate whether the collagen synthesis in fibroblasts is facilitated by the treatment of the peptides of the present invention, using the NIH3T3 cells (mouse fibroblast cell line, ATCC CRL-1658, USA). The fibroblasts were treated with the peptides of SEQ ID NOs: 1, 2, 3 and 5, in the concentrations of 0.1, 1 and 10 μM, respectively. After 48 hours, the cell extracts were subject to the Western blotting assay so as to measure the expressions of procollagen type-1. […] Therefore, it can be seen that the peptides of the present invention can inhibit skin aging derived from loss of collagen, especially skin wrinkle.
row,Substance,expressions of procollagen type-1
1,"His-Ile-Thr (HIT; Peptide fragment) [SEQ ID NO: 2, adiponectin-derived peptide fragment]",increased
2,"Leu-Phe-Thr-Tyr-Asp (LFTYD; Peptide fragment) [SEQ ID NO: 3, adiponectin-derived peptide fragment]",increased
3,"Phe-Thr-Tyr (FTY; Peptide fragment) [SEQ ID NO: 5, adiponectin-derived peptide fragment]",increased
4,"Tyr-His-Ile-Thr (YHIT; Peptide fragment) [SEQ ID NO: 1, adiponectin-derived peptide fragment]",increased

# From US9624286B2, “Composition comprising peptide derived from adiponectin” (KNU-INDUSTRY COOPERATION FOUNDATION, priority 2013, dated 2017)
